Measured values reported in patent US20090215826A1, “SOLID FORMS OF A PYRROLIDINE-3,4-DICARBOXAMIDE DERIVATIVE” (priority 2007, published 2009).

Test: Storage stability of crystalline form B (HPLC, IR, XRPD)
Assay type: physicochemical
Conditions: storage for 1 year up to 40° C./75% rh
Protocol: “IR” is used herein as an acronym of Infra Red spectroscopy. IR spectra were recorded as film of a Nujol suspension of approximately 5 mg of sample and few Nujol between two sodium chloride plates, with an FTIR spectrometer in transmittance. The Spectrometer is a Nicolet™ 20SXB or equivalent (resolution 2 cm^−1, 32 or more coadded scans, MCT detector).
“XRPD (is used herein as an acronym of X-Ray Powder Diffraction)” X-ray diffraction patterns were recorded at ambient conditions in transmission geometry with a STOE STADIP diffractometer (Cu Kα radiation, primary monochromator, position sensitive detector, angular range 3° to 42° 2 Theta, approximately 60 minutes total measurement time). The samples were prepared and analyzed without further processing (e.g. grinding or sieving) of the substance. “TGA (is used herein as an acronym of ThermoGravimetric Analysis)” was performed on a Mettler-Toledo™ thermogravimetric analyzer (TGA850 or TGA851). System suitability tests and calibrations were carried out according to the internal standard operation procedure.
The Form B has been characterized with IR and XRPD. The chemical stability was measured by HPLC (high performance liquid chromatography).

chemical stability (degradation) measured by HPLC: No significant degradation | crystal form compared to the initial analysis (IR and XRPD): has not been changed
Structure (SMILES): O=C(Nc1ccc(Cl)cn1)[C@H]1CN(CC(F)F)C[C@@H]1C(=O)Nc1ccc(-n2ccccc2=O)cc1F [Form B, (3R,4R)-1-(2,2-Difluoroethyl)-pyrrolidine-3,4-dicarboxylic acid 3-[(5-chloro-pyridin-2-yl)-amide] 4-{[2-fluoro-4-(2-oxo-2H-pyridin-1-yl)-phenyl]-amide}]
